Test results taken from patent publication US7531570B2, “Treatment of diseases using ICE inhibitors” (Vertex Pharmaceuticals Incorporated, priority 2004, dated 2009).

What was measured:
MWS patients = experiment: Open-label clinical trial: clinical response of 4 MWS patients to compound 7; assay type: in vivo, human
Procedure: Clinical Response of 4 MWS Patients to 900 mg Compound 7 Administered Orally Three Times Daily for 14 Days.
Four patients with MWS were enrolled into an open-label clinical trial to receive treatment with compound 7.
Compound 7 was administered orally at a dose of 900 mg 3 times daily for 14 days.
Specifically, in FIG. 3A, serum interleukin-18 (IL-18) was measured before (day −9 and day 0 (first point)), during (day 0 (second point), day 7 and day 14, (first point)) and after (day 14 (second point) and day 21) treatment with compound 7. On average, serum IL-18 levels were reduced by 55% at day 14. Data were reported in mean±SEM from 4 patients. Baseline levels of serum IL-18 were 170-370 pg /mL and were only slightly elevated relative to those typically observed in healthy control subjects.
In FIG. 3B, Serum amyloid A (SAA) and C-reactive protein (CRP) were measured before, during and after treatment with compound 7, and the amounts of SAA and CRP were reduced on average by 75% and 65%, respectively. Baseline levels of SAA were 150-650 mg/L and of CRP were 20-90 mg/L, both considerably elevated relative to healthy control subjects.
FIG. 3C illustrates that the self-reported patient total symptom scores were reduced on average by 60% during treatment. Individual symptoms (rash, fever/chills, arthralgia/myalgia, eye discomfort, fatigue) were rated daily by patients to be absent (O), minimal (1), mild (2), moderate (3) or severe (4) and the total score was calculated as the sum of individual symptom scores (range 0-20). Patients were experiencing mild-moderate symptoms at the beginning of treatment (scores 10-15), which were reduced to a minimal level (scores about 5) during treatment with compound 7.

[1] = test system: LPS-stimulated IL-1β release from PBMCs of FCAS patients; experiment: LPS-stimulated IL-1β release from PBMCs of patients with FCAS; assay type: cell-based, human
Text: (§1) Inhibition by Compound 7 of LPS-Stimulated IL-1β and IL-18 Release from PBMCs of Patients with FCAS Compared with Healthy Controls.
(§2) FCAS patients from 3 families were studied along with healthy controls. The FCAS patients expressed 3 different CIAS1 gene mutations. […] (Neven B, Callebaut I, Prieur A M, Feldmann J, Bodemer C, Lepore L, Derfalvi B, Benjaponpitak S, Vesely R, Sauvain M J, Oertle S, Allen R, Morgan G, Borkhardt A, Hill C, Gardner-Medwin J. Fischer A, de Saint Basile G. Molecular basis of the spectral expression of CIAS1 mutations associated with phagocytic cell-mediated autoinflammatory disorders CINCA/NOMID, MWS, and FCU. Blood. 2004; 103(7): 2809-15).
(§3) Whole blood samples were collected from patients with FCAS and from healthy volunteer controls and cultured in vitro. The production of IL-1β was evaluated under normal, unstimulated conditions and in the presence of lipopolysaccharide at a range of concentrations from 10-10,000 ng/mL. Compound 7 was added to the cultures at concentrations of 30-30,000 nM to observe its ability to inhibit the production of IL-1β and IL-18 by cells from patients with FCAS or healthy volunteers. FIG. 1 illustrates the results of these experiments.
(§4) More specifically, in FIG. 1A, PBMCs from FCAS patients and normal controls were incubated with 10 ng/ml LPS in the presence of increasing concentrations of compound 7 (0.03-30 μM) for 24 hours. IL-1β in cell culture media was measured by ELISA and the results for each subject were normalized to the level of IL-1β release in the absence of compound 7. Results were reported in mean±SEM, for 3 FCAS patients and 5 control patients. LPS-stimulated IL-1β was inhibited by compound 7 with potency very similar to that of PBMCs from normal subjects (IC50 value˜1 μM).
FIG. 1B illustrates the release of IL-1β by PBMCs from FCAS patients or control subjects after exposure to LPS for 24 hours in the absence or presence of 10 μM compound 7. Results were reported in mean±SEM for 7 FCAS patients and 5 control patients. […]

[2] = test system: LPS-stimulated IL-18 release from PBMCs of FCAS patients; experiment: LPS-stimulated IL-18 release from PBMCs of patients with FCAS; assay type: cell-based, human
Text: as §1, §2, §3
FIG. 1C illustrates the release of IL-18 by PBMCs from FCAS patients or control subjects after 24 hrs exposure to LPS in the absence or presence of 10 μM compound 7. […]

[3] = test system: LPS-stimulated IL-1β release from PBMCs from MWS patients; experiment: LPS-stimulated IL-1β release from PBMCs from MWS patients; assay type: cell-based, human; conditions: PBMCs from 4 MWS patients, 10 ng/ml LPS, compound 0.03-10 μM, 24 hour, ELISA, FIG. 2
Procedure: Inhibition by Compound 7 of LPS-Stimulated IL-1β Release from PBMCs from 4 MWS Patients Incubated with 10 ng/ml LPS in the Presence of Increasing Concentrations of Compound 7 (0.03-10 μM) for 24 Hour.
Whole blood samples were collected from patients with MWS and cultured in vitro. The production of IL-1β was evaluated under normal, unstimulated conditions and in the presence of lipopolysaccharide at a range of concentrations from 10-10,000 ng/mL. Compound 7 was added to the cultures at concentrations of 30-10,000 nM to observe its ability to inhibit the production of IL-1β by cells from patients with MWS or healthy volunteers. FIG. 2 illustrates the results of these experiments.
More specifically, in FIG. 2, IL-1β in cell culture media was measured by ELISA and the results for each subject were normalized to the level of IL-1β release in the absence of compound 7. Results were reported individually for each of the 4 MWS patients.

[4] = test system: LPS-stimulated IL-1β release from PBMCs from normal subjects; experiment: LPS-stimulated IL-1β release from PBMCs of healthy controls; assay type: cell-based; conditions: Homo sapiens, PBMC, 10 ng/ml LPS, 24 hours, compound 0.03-30 μM, ELISA, FIG. 1A, read-out: IC50 for inhibition of LPS-stimulated IL-1β release
Procedure: as §1, §3, §4

patients with MWS = conditions: cited from earlier work
[5] = 900 mg orally three times daily for 14 days, MWS patients, FIG. 3B

Molecule	Reduction of C-reactive protein (CRP) (average) (MWS patients; [5])	Reduction of serum amyloid A (SAA) (average) (MWS patients; [5])	Reduction of serum interleukin-18 (average) (MWS patients; 900 mg orally three times daily, at day 14, 4 MWS patients, FIG. 3A)	Reduction of self-reported patient total symptom scores (average) (MWS patients; 900 mg orally three times daily, during treatment, MWS patients, FIG. 3C)	Tolerability (MWS patients; four MWS patients, 14-day treatment period, 900 mg 3 times daily orally)	Total symptom score during treatment (MWS patients; sum of 5 symptom scores, range 0-20, scores 10-15 at beginning of treatment)	LPS-stimulated IL-1β release in presence of compound ([1]; 10 μM compound, LPS 24 hours, PBMCs from 7 FCAS patients vs 5 controls, FIG. 1B)	IC50 ([1]; Homo sapiens, PBMC, PBMCs from FCAS patients, 10 ng/ml LPS, 24 hours, compound 0.03-30 μM, ELISA, FIG. 1A, read-out: IC50 for inhibition of LPS-stimulated IL-1β release)	Potency of blocking IL-1β secretion, FCAS versus control subjects ([1]; LPS-stimulated cells, FIG. 1)	LPS-stimulated IL-18 release in presence of compound ([2]; 10 μM compound, LPS 24 hrs, PBMCs from 3 FCAS patients vs 3 controls, FIG. 1C)	Potency of blocking IL-18 secretion, FCAS versus control subjects ([2]; LPS-stimulated cells, FIG. 1)	Inhibition of LPS-stimulated IL-1β release, potency versus normal subjects [3]	IC50 [4]	Clinical inflammatory symptoms in patients with MWS (patients with MWS; daily injection)	Serum amyloid A in patients with MWS (patients with MWS; daily injection)	Urinary excretion of amyloid in patients with MWS (patients with MWS; daily injection)	Effectiveness in treating Muckle-Wells syndrome, Familial Cold Autoinflammatory Syndrome, Hyper-IgD syndrome and systemic onset Juvenile idiopathic Arthritis (patients with MWS; human, in vivo)
CCO[C@@H]1OC(=O)C[C@@H]1NC(=O)[C@@H]1CCCN1C(=O)[C@@H](NC(=O)c1ccc(N)c(Cl)c1)C(C)(C)C [Compound 7]	65%	75%	55%	60%	well tolerated	about 5	inhibited	~1000 nM	equal potency	inhibited	equal potency	potency similar to that of PBMCs from normal subjects	~1000 nM				
anakinra: recombinant human interleukin-1 receptor antagonist (rhuIL-1Ra, anakinra)														dramatic, rapid and sustained reduction	reduction of serum amyloid A	reduction	effective
